Values of other authors in article PMC4408927 (Nature, 2015).

Experiments:
[1] = not given; remark: listed apart in the source

| Effect on bleeding | SMILES | Platelet aggregation (platelet aggregation) | Arterial thrombosis [1] | Bleeding time | ADP-induced platelet aggregation (platelet aggregation) |
| --- | --- | --- | --- | --- | --- |
| minimal effect | CC(C)(C)c1ccccc1Oc1ncccc1NC(=O)Nc1ccc(OC(F)(F)F)cc1 [BPTU, 1-(2-(2-(tert-butyl)phenoxy)pyridin-3-yl)-3-(4-(trifluoromethoxy)phenyl)urea] | substantially reduces |  |  |  |
|  | CNc1nc(I)nc2c1ncn2[C@H]1C[C@H](OP(=O)(O)O)[C@]2(COP(=O)(O)O)C[C@H]12 [MRS2500, (1′R,2′S,4′S,5′S)-4-(2-Iodo-6-methylaminopurin-9-yl)-1-[(phosphato)methyl]-2(phosphato)bicycle[3.1.0]-hexane] |  | effectively reduces | moderate prolongation | completely blocks |
